What all share (assay): Kinase inhibitor library screening, PrestoBlue cell viability, 1 or 10 μM, 72 h
One test concerns 501Mel cells (parental). Conditions: for viability at 1 µM / viability at 10 µM: Homo sapiens; for viability at 1 µM: read-out: cell viability, 501Mel Parental, 1μΜ; for viability at 10 µM: read-out: cell viability, 501Mel Parental, 10μΜ. An outline of the steps:
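Kinase inhibitors added at two fixed concentrations; 72 h exposure; PrestoBlue readout; % viability vs untreated; n ≥ 2 per line.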

For test [1], the system named is 501Mel-GP cells (Dabrafenib-resistant). The settings on record: for viability at 1 µM / viability at 10 µM: Homo sapiens; for viability at 1 µM: read-out: cell viability, 501Mel GP, 1μΜ; for viability at 10 µM: read-out: cell viability, 501Mel GP, 10μΜ.
Test [2] relates to 501Mel-XP cells (Vemurafenib-resistant). The settings on record: for viability at 1 µM / viability at 10 µM: Homo sapiens; for viability at 1 µM: read-out: cell viability, 501Mel XP, 1μΜ; for viability at 10 µM: read-out: cell viability, 501Mel XP, 10μΜ.
The test system of a further test is A375 cells (parental). Conditions: for viability at 1 µM / viability at 10 µM: Homo sapiens, A-375, 72 h; for viability at 1 µM: read-out: cell viability, A375 Parental, 1μΜ; for viability at 10 µM: read-out: cell viability, A375 Parental, 10μΜ.
Test [3] concerns A375-GP cells (Dabrafenib-resistant). The settings on record: for viability at 1 µM / viability at 10 µM: Homo sapiens, A-375, 72 h; for viability at 1 µM: read-out: cell viability, A375 GP, 1μΜ; for viability at 10 µM: read-out: cell viability, A375 GP, 10μΜ.
In test [4] the test system is A375-XP cells (Vemurafenib-resistant). The settings on record: for viability at 1 µM / viability at 10 µM: Homo sapiens, A-375, 72 h; for viability at 1 µM: read-out: cell viability, A375 XP, 1μΜ; for viability at 10 µM: read-out: cell viability, A375 XP, 10μΜ.
The next test relates to IGR37 cells (parental). Conditions: for viability at 1 µM / viability at 10 µM: Homo sapiens, IGR-37, 72 h; for viability at 1 µM: read-out: cell viability, IGR37 Parental, 1μΜ; for viability at 10 µM: read-out: cell viability, IGR37 Parental, 10μΜ.
For test [5], the system named is IGR37-GP cells (Dabrafenib-resistant). The settings on record: for viability at 1 µM / viability at 10 µM: Homo sapiens, IGR-37, 72 h; for viability at 1 µM: read-out: cell viability, IGR37 GP, 1μΜ; for viability at 10 µM: read-out: cell viability, IGR37 GP, 10μΜ.
Test [6] deals with IGR37-XP cells (Vemurafenib-resistant). Conditions: for viability at 1 µM / viability at 10 µM: Homo sapiens, IGR-37, 72 h; for viability at 1 µM: read-out: cell viability, IGR37 XP, 1μΜ; for viability at 10 µM: read-out: cell viability, IGR37 XP, 10μΜ.

For the compound `CNC(=O)c1cc(Oc2ccc(NC(=O)Nc3ccc(Cl)c(C(F)(F)F)c3)cc2)ccn1` [Sorafenib (Nexavar)], the “cell viability (kinase inhibitor library screening)” value turned out to be 97.8 in the test on 501Mel cells (parental) (501Mel Parental, 1μΜ, in %); 53.0 with 501Mel cells (parental) (501Mel Parental, 10μΜ, in %); 104.7 in test [1] (501Mel GP, 1μΜ, in %); 96.9 in test [2] (501Mel XP, 1μΜ, in %); 23.2 in test [2] (501Mel XP, 10μΜ, in %); 44.5 in the test with A375 cells (parental) (A375 Parental, 10μΜ, in %). The “cell viability (kinase inhibitor library screening)” value worked out at 80.9 in [3] (A375 GP, 1μΜ, in %); 22.0 in [3] (A375 GP, 10μΜ, in %); 95.0 in test [4] (A375 XP, 1μΜ, in %); 16.4 in test [4] (A375 XP, 10μΜ, in %); 96.8 in the test on IGR37 cells (parental) (IGR37 Parental, 1μΜ, in %); 60.6 in the test with IGR37 cells (parental) (IGR37 Parental, 10μΜ, in %). For the same compound, the “cell viability (kinase inhibitor library screening)” value was 102.7 in [5] (IGR37 GP, 1μΜ, in %); 41.3 in [5] (IGR37 GP, 10μΜ, in %); 106.1 in [6] (IGR37 XP, 1μΜ, in %); 16.7 in [6] (IGR37 XP, 10μΜ, in %).

With `CN1CCN(c2nc(C3=C(c4c[nH]c5ccccc45)C(=O)NC3=O)c3ccccc3n2)CC1` [Sotrastaurin (AEB071)], the “Cell viability in kinase inhibitor library screening, 501Mel Parental, 10μΜ” value in the test on 501Mel cells (parental) (501Mel Parental, 10μΜ, 72 h, in %) was found to be 95.7. Also, in test [1] (501Mel GP, 1μΜ, 72 h, in %), the “Cell viability in kinase inhibitor library screening, 501Mel GP, 1μΜ” value is 105.7. The “Cell viability in kinase inhibitor library screening, 501Mel GP, 10μΜ” value in test [1] (501Mel GP, 10μΜ, 72 h, in %) stood at 91.8. Besides, in [2] (501Mel XP, 1μΜ, 72 h, in %), the “Cell viability in kinase inhibitor library screening, 501Mel XP, 1μΜ” value is 96.4. Besides, in test [2] (501Mel XP, 10μΜ, 72 h, in %), the “Cell viability in kinase inhibitor library screening, 501Mel XP, 10μΜ” value is reported as 77.9. Besides, in the test with A375 cells (parental) (A375 Parental, 1μΜ, 72 h), the “Cell viability in kinase inhibitor library screening, A375 Parental, 1μΜ” value is listed as 108.3. In addition, the “Cell viability in kinase inhibitor library screening, A375 GP, 10μΜ” value in test [3] (A375 GP, 10μΜ, 72 h) was determined as 88.5. Also, the “Cell viability in kinase inhibitor library screening, A375 XP, 1μΜ” value in test [4] (A375 XP, 1μΜ, 72 h) was 102.8. The “Cell viability in kinase inhibitor library screening, A375 XP, 10μΜ” value in [4] (A375 XP, 10μΜ, 72 h) stood at 96.9. In addition, the “Cell viability in kinase inhibitor library screening, IGR37 Parental, 1μΜ” value in the test on IGR37 cells (parental) (IGR37 Parental, 1μΜ, 72 h, in %) is recorded as 108.5. Besides, in the test on IGR37 cells (parental) (IGR37 Parental, 10μΜ, 72 h, in %), the “Cell viability in kinase inhibitor library screening, IGR37 Parental, 10μΜ” value is 95.3. In test [5] (IGR37 GP, 10μΜ, 72 h), this compound came in with a Cell viability in kinase inhibitor library screening, IGR37 GP, 10μΜ of 89.1%. The “Cell viability in kinase inhibitor library screening, IGR37 GP, 1μΜ” value in [5] (IGR37 GP, 1μΜ, 72 h, in %) is given as 96.8. Further, the Cell viability in kinase inhibitor library screening, IGR37 XP, 10μΜ in test [6] (IGR37 XP, 10μΜ, 72 h) was 78.1%.

Regarding `CCN(CC)CCNC(=O)c1c(C)[nH]c(/C=C2\C(=O)Nc3ccc(F)cc32)c1C.O=C(O)C[C@H](O)C(=O)O` [Sunitinib Malate (Sutent)], the “cell viability (kinase inhibitor library screening)” value in the test on 501Mel cells (parental) (501Mel Parental, 1μΜ, in %) is on record as 99.9; in the test on 501Mel cells (parental) (501Mel Parental, 10μΜ, in %), 0.237; in [1] (501Mel GP, 10μΜ, in %), 1.4; in test [2] (501Mel XP, 1μΜ, in %), 92.7; in test [2] (501Mel XP, 10μΜ, in %), -0.452; with A375 cells (parental) (A375 Parental, 1μΜ, in %), 104.0. The “cell viability (kinase inhibitor library screening)” value in the test on A375 cells (parental) (A375 Parental, 10μΜ, in %) was found to be 67.2; in test [3] (A375 GP, 10μΜ, in %) it was 72.3; in test [4] (A375 XP, 10μΜ, in %) it was 68.1; with IGR37 cells (parental) (IGR37 Parental, 1μΜ, in %), 97.5; in the test with IGR37 cells (parental) (IGR37 Parental, 10μΜ, in %), 68.0; in [5] (IGR37 GP, 1μΜ, in %), 87.4. In addition, the “cell viability (kinase inhibitor library screening)” value in [5] (IGR37 GP, 10μΜ, in %) was 7.9; in test [6] (IGR37 XP, 1μΜ, in %) it was 100.5; in test [6] (IGR37 XP, 10μΜ, in %), 1.2.

Turning to `COc1cc(N2CCC(N3CCN(C)CC3)CC2)ccc1Nc1ncc(Cl)c(Nc2ccccc2S(=O)(=O)C(C)C)n1` [TAE684 (NVP-TAE684)], the “cell viability (kinase inhibitor library screening)” value in the test on 501Mel cells (parental) (501Mel Parental, 1μΜ, 72 h) is listed as 103.2%; with 501Mel cells (parental) (501Mel Parental, 10μΜ, 72 h) it was 0.331%; in test [1] (501Mel GP, 1μΜ, 72 h) it was 112.8%; in test [1] (501Mel GP, 10μΜ, 72 h), -0.0599%; in test [2] (501Mel XP, 10μΜ, 72 h), -0.231%; in the test with A375 cells (parental) (A375 Parental, 10μΜ, 72 h), 8.8%. The “cell viability (kinase inhibitor library screening)” value in the test on A375 cells (parental) (A375 Parental, 1μΜ, 72 h) is given as 76.3%; in test [3] (A375 GP, 1μΜ, 72 h), 61.5%; in test [3] (A375 GP, 10μΜ, 72 h) it was 8.3%; in test [4] (A375 XP, 1μΜ, 72 h) it was 72.8%; in test [4] (A375 XP, 10μΜ, 72 h), 13.8%; with IGR37 cells (parental) (IGR37 Parental, 1μΜ, 72 h), 99.2%. The “cell viability (kinase inhibitor library screening)” value with IGR37 cells (parental) (IGR37 Parental, 10μΜ, 72 h) was 4.4%; in test [5] (IGR37 GP, 1μΜ, 72 h) it was 84.1%; in test [5] (IGR37 GP, 10μΜ, 72 h), 1.7%; in test [6] (IGR37 XP, 1μΜ, 72 h), 67.8%; in test [6] (IGR37 XP, 10μΜ, 72 h) it was 1.0%.

The term viability denotes a read-out of living cells in per cent, often relative to untreated cells. As for `CC(C)(O)CC(=O)NCCn1ccc2ncnc(Nc3ccc(Oc4cccc(C(F)(F)F)c4)c(Cl)c3)c21` [TAK-285], the viability at 1 µM in the test on 501Mel cells (parental) (72 h) came to 101%; in [1] (72 h) it was 104%; in test [2] (72 h) it was 94.8%; in the test on A375 cells (parental), 102%; in test [3] it was 103%; in test [4] it was 108%. In addition, the viability at 1 µM in the test on IGR37 cells (parental) was determined as 108%; in [5], 90.8%; in [6], 87.2%. For the same compound, the viability at 10 µM in the test with 501Mel cells (parental) (72 h) is 99%; in test [1] (72 h), 87.8%; in test [2] (72 h), 83.2%; in the test with A375 cells (parental), 90.5%; in test [3], 83.1%; in test [4] it was 87.7%. Further, the figures for the viability at 10 µM (with IGR37 cells (parental); in test [5]; in [6]) were 99.7%, 86% and 48.4%, respectively.

With `Cn1c(=O)c(F)c(Nc2ccc(I)cc2F)c2c(=O)n(C[C@@H](O)CO)cnc21` [TAK-733], the viability at 1 µM in the test with 501Mel cells (parental) (72 h) was found to be 54%; in test [1] (72 h), 90.9%; in [2] (72 h), 80.5%; with A375 cells (parental) it was 18.6%; in test [3] it was 17.6%; in test [4], 10.7%. The viability at 1 µM in the test on IGR37 cells (parental) amounted to 36.5%; in test [5], 65.6%; in [6], 52.9%. The viability at 10 µM with 501Mel cells (parental) (72 h) amounted to 57.9%; in test [1] (72 h), 72.7%; in test [2] (72 h), 58.7%; in the test on A375 cells (parental) it was 18.6%; in test [3], 16.5%; in [4], 2.7%. In addition, the viability at 10 µM with IGR37 cells (parental) turned out to be 44%; in test [5], 58.6%; in test [6], 22%.

(Values after publication PMC6364417, “Kinase inhibitor library screening identifies synergistic drug combinations effective in sensitive and resistant melanoma cells” (Journal of Experimental & Clinical Cancer Research : CR, 2019).)
